{
  "source": "ChEMBL document CHEMBL1127439",
  "about": "“Structure-activity relationship studies of central nervous system agents. 13. 4-[3-(Benzotriazol-1-yl)propyl]-1-(2-methoxyphenyl)piperazine, a new putative 5-HT1A receptor antagonist, and its analogs” (J Med Chem, 1994)",
  "key": {"[1]": {"target": "T1, 5-hydroxytryptamine receptor 1A (Rattus norvegicus, UniProt P19327)", "T1 sequence (P19327 whole entry)": "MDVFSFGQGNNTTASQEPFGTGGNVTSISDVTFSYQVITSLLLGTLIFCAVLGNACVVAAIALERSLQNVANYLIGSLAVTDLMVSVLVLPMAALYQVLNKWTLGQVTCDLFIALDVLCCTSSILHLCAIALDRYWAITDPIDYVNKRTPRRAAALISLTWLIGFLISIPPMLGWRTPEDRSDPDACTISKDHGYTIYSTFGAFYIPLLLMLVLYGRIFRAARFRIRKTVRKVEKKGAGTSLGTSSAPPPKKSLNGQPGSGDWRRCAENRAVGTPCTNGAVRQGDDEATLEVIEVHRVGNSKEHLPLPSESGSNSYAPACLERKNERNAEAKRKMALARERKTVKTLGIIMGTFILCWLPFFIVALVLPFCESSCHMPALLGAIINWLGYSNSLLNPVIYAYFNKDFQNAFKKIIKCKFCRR", "test": "Tested in vitro for receptor binding affinity against 5-hydroxytryptamine 1A receptor using radioligand [3H]8-OH-DPAT"}, "[2]": {"target": "Serotonin 2 (5-HT2) receptor (Rattus norvegicus, UniProt P30994+P08909+P14842)", "test": "Tested in vitro for receptor binding affinity against 5-hydroxytryptamine 2 receptor using radioligand [3H]ketanserin", "type": "protein assay"}, "Mus musculus [3]": {"system": "Mus musculus", "test": "Effect on body temperature in mice at intraperitoneal dosage of 2 mg/kg, (compound administered 30 min before the test) after 45 min", "type": "functional"}, "Mus musculus [4]": {"system": "Mus musculus", "test": "Effect on body temperature in mice at intraperitoneal dosage of 2 mg/kg, (compound administered 30 min before the test) after 60 min", "type": "functional"}, "Mus musculus [5]": {"system": "Mus musculus", "test": "Effect on 8-OH-DPAT-induced hypothermia in mice (5 mg/kg) at intraperitoneal dosage of 4 mg/kg of compound after 60 mins", "type": "functional"}, "Mus musculus [6]": {"system": "Mus musculus", "test": "Effect on 8-OH-DPAT-induced hypothermia in mice (5 mg/kg) at intraperitoneal dosage of 8 mg/kg of compound after 15 mins", "type": "functional"}, "Mus musculus [7]": {"system": "Mus musculus", "test": "Effect on 8-OH-DPAT-induced hypothermia in mice (5 mg/kg) at intraperitoneal dosage of 8 mg/kg of compound after 30 mins", "type": "functional"}, "Mus musculus [8]": {"system": "Mus musculus", "test": "Effect on 8-OH-DPAT-induced hypothermia in mice (5 mg/kg) at intraperitoneal dosage of 8 mg/kg of compound after 45 mins", "type": "functional"}, "Mus musculus [9]": {"system": "Mus musculus", "test": "Effect on 8-OH-DPAT-induced hypothermia in mice (5 mg/kg) at intraperitoneal dosage of 8 mg/kg of compound after 60 mins", "type": "functional"}, "Mus musculus [10]": {"system": "Mus musculus", "test": "Effect on body temperature in mice at intraperitoneal dosage of 1 mg/kg, (compound administered 30 min before the test) after 45 min", "type": "functional"}, "Mus musculus [11]": {"system": "Mus musculus", "test": "Effect on body temperature in mice at intraperitoneal dosage of 1 mg/kg, (compound administered 30 min before the test) after 75 min", "type": "functional"}, "Mus musculus [12]": {"system": "Mus musculus", "test": "Effect on body temperature in mice at intraperitoneal dosage of 1 mg/kg, (compound administered 30 min before the test) after 90 min", "type": "functional"}, "Mus musculus [13]": {"system": "Mus musculus", "test": "Effect on 8-OH-DPAT-induced hypothermia in mice (5 mg/kg) at intraperitoneal dosage of 1 mg/kg of compound after 15 mins", "type": "functional"}, "Mus musculus [14]": {"system": "Mus musculus", "test": "Effect on 8-OH-DPAT-induced hypothermia in mice (5 mg/kg) at intraperitoneal dosage of 1 mg/kg of compound after 45 mins", "type": "functional"}, "Mus musculus [15]": {"system": "Mus musculus", "test": "Effect on body temperature in mice at intraperitoneal dosage of 8 mg/kg, (compound administered 30 min before the test) after 75 min", "type": "functional"}, "Mus musculus [16]": {"system": "Mus musculus", "test": "Effect on body temperature in mice at intraperitoneal dosage of 2 mg/kg, (compound administered 30 min before the test) after 75 min", "type": "functional"}, "Mus musculus [17]": {"system": "Mus musculus", "test": "Effect on 8-OH-DPAT-induced hypothermia in mice (5 mg/kg) at intraperitoneal dosage of 2 mg/kg of compound after 30 mins", "type": "functional"}, "Mus musculus [18]": {"system": "Mus musculus", "test": "Effect on 8-OH-DPAT-induced hypothermia in mice (5 mg/kg) at intraperitoneal dosage of 2 mg/kg of compound after 45 mins", "type": "functional"}, "Mus musculus [19]": {"system": "Mus musculus", "test": "Effect on 8-OH-DPAT-induced hypothermia in mice (5 mg/kg) at intraperitoneal dosage of 2 mg/kg of compound after 60 mins", "type": "functional"}, "Mus musculus [20]": {"system": "Mus musculus", "test": "Effect on 8-OH-DPAT-induced hypothermia in mice (5 mg/kg) at intraperitoneal dosage of 4 mg/kg of compound after 30 mins", "type": "functional"}, "Mus musculus [21]": {"system": "Mus musculus", "test": "Effect on body temperature in mice at intraperitoneal dosage of 2 mg/kg, (compound administered 30 min before the test) after 90 min", "type": "functional"}, "Mus musculus [22]": {"system": "Mus musculus", "test": "Effect on body temperature in mice at intraperitoneal dosage of 4 mg/kg, (compound administered 30 min before the test) after 60 min", "type": "functional"}, "Mus musculus [23]": {"system": "Mus musculus", "test": "Effect on body temperature in mice at intraperitoneal dosage of 4 mg/kg, (compound administered 30 min before the test) after 75 min", "type": "functional"}, "Mus musculus [24]": {"system": "Mus musculus", "test": "Effect on body temperature in mice at intraperitoneal dosage of 4 mg/kg, (compound administered 30 min before the test) after 90 min", "type": "functional"}, "Mus musculus [25]": {"system": "Mus musculus", "test": "Effect on body temperature in mice at intraperitoneal dosage of 8 mg/kg, (compound administered 30 min before the test) after 30 min", "type": "functional"}, "Mus musculus [26]": {"system": "Mus musculus", "test": "Effect on body temperature in mice at intraperitoneal dosage of 8 mg/kg, (compound administered 30 min before the test) after 60 min", "type": "functional"}, "Rattus norvegicus [27]": {"system": "Rattus norvegicus", "test": "Tested for the effect on 8-OH-DPAT-induced behavior in reserpine pretreated rat against flat body posture at dosage of 2 mg/kg", "type": "functional"}, "Rattus norvegicus [28]": {"system": "Rattus norvegicus", "test": "Tested for the effect on 8-OH-DPAT-induced behavior in reserpine pretreated rat against flat body posture at dosage of 4 mg/kg", "type": "functional"}, "Rattus norvegicus [29]": {"system": "Rattus norvegicus", "test": "Tested for the effect on 8-OH-DPAT-induced behavior in reserpine pretreated rat against flat body posture at dosage of 8 mg/kg", "type": "functional"}, "Rattus norvegicus [30]": {"system": "Rattus norvegicus", "test": "Tested for the effect on 8-OH-DPAT-induced behavior in reserpine pretreated rat against forepaw treading at dosage of 2 mg/kg", "type": "functional"}, "Rattus norvegicus [31]": {"system": "Rattus norvegicus", "test": "Tested for the effect on 8-OH-DPAT-induced behavior in reserpine pretreated rat against forepaw treading at dosage of 8 mg/kg", "type": "functional"}, "Rattus norvegicus [32]": {"system": "Rattus norvegicus", "test": "Tested for the effect on 8-OH-DPAT-induced lower lip retraction (LLR) in rat at dosage of 2 mg/kg", "type": "functional"}, "Rattus norvegicus [33]": {"system": "Rattus norvegicus", "test": "Tested for the induction of lower lip retraction (LLR) by the investigated compounds in rat at dosage of 16 mg/kg", "type": "functional"}, "Rattus norvegicus [34]": {"system": "Rattus norvegicus", "test": "Tested for the induction of lower lip retraction (LLR) by the investigated compounds in rat at dosage of 2 mg/kg", "type": "functional"}, "Rattus norvegicus [35]": {"system": "Rattus norvegicus", "test": "Tested for the induction of lower lip retraction (LLR) by the investigated compounds in rat at dosage of 8 mg/kg", "type": "functional"}, "Mus musculus [36]": {"system": "Mus musculus", "test": "Effect on 8-OH-DPAT-induced hypothermia in mice (5 mg/kg) at intraperitoneal dosage of 1 mg/kg of compound after 60 mins", "type": "functional"}, "Mus musculus [37]": {"system": "Mus musculus", "test": "Effect on body temperature in mice at intraperitoneal dosage of 4 mg/kg, (compound administered 30 min before the test) after 45 min", "type": "functional"}, "Rattus norvegicus [38]": {"system": "Rattus norvegicus", "test": "Tested for the effect on 8-OH-DPAT-induced behavior in reserpine pretreated rat against forepaw treading at dosage of 4 mg/kg", "type": "functional"}},
  "data": [
    {"smiles": "COc1ccccc1N1CCN(CCCn2nnc3ccccc32)CC1", "values": [
      {"measurement": "Ki", "setting": "[1]", "result": 15, "unit": "nM"},
      {"measurement": "Ki", "setting": "[2]", "result": 1040, "unit": "nM"},
      {"measurement": "Delta t", "setting": "Mus musculus [3]", "result": 0.1, "unit": "°C"},
      {"measurement": "Delta t", "setting": "Mus musculus [4]", "result": 0.2, "unit": "°C"},
      {"measurement": "Delta t", "setting": "Mus musculus [5]", "result": 0.1, "unit": "°C"},
      {"measurement": "Delta t", "setting": "Mus musculus [6]", "result": 0.3, "unit": "°C"},
      {"measurement": "Delta t", "setting": "Mus musculus [7]", "result": 0.4, "unit": "°C"},
      {"measurement": "Delta t", "setting": "Mus musculus [8]", "result": 0.7, "unit": "°C"},
      {"measurement": "Delta t", "setting": "Mus musculus [9]", "result": 0.6, "unit": "°C"},
      {"measurement": "Delta t", "setting": "Mus musculus [10]", "result": 0.1, "unit": "°C"},
      {"measurement": "Delta t", "setting": "Mus musculus [11]", "result": 0, "unit": "°C"},
      {"measurement": "Delta t", "setting": "Mus musculus [12]", "result": 0.1, "unit": "°C"},
      {"measurement": "Delta t", "setting": "Mus musculus [13]", "result": 1.5, "unit": "°C"},
      {"measurement": "Delta t", "setting": "Mus musculus [14]", "result": 0.6, "unit": "°C"},
      {"measurement": "Delta t", "setting": "Mus musculus [15]", "result": 0.2, "unit": "°C"},
      {"measurement": "Delta t", "setting": "Mus musculus [16]", "result": 0.2, "unit": "°C"},
      {"measurement": "Delta t", "setting": "Mus musculus [17]", "result": 0.2, "unit": "°C"},
      {"measurement": "Delta t", "setting": "Mus musculus [18]", "result": 0.1, "unit": "°C"},
      {"measurement": "Delta t", "setting": "Mus musculus [19]", "result": 0.1, "unit": "°C"},
      {"measurement": "Delta t", "setting": "Mus musculus [20]", "result": 0.1, "unit": "°C"},
      {"measurement": "Delta t", "setting": "Mus musculus [21]", "result": 0.1, "unit": "°C"},
      {"measurement": "Delta t", "setting": "Mus musculus [22]", "result": 0.1, "unit": "°C"},
      {"measurement": "Delta t", "setting": "Mus musculus [23]", "result": 0, "unit": "°C"},
      {"measurement": "Delta t", "setting": "Mus musculus [24]", "result": 0.2, "unit": "°C"},
      {"measurement": "Delta t", "setting": "Mus musculus [25]", "result": 0.4, "unit": "°C"},
      {"measurement": "Delta t", "setting": "Mus musculus [26]", "result": 0.1, "unit": "°C"},
      {"measurement": "Behavioral score", "setting": "Rattus norvegicus [27]", "result": 14.8},
      {"measurement": "Behavioral score", "setting": "Rattus norvegicus [28]", "result": 11.5},
      {"measurement": "Behavioral score", "setting": "Rattus norvegicus [29]", "result": 8},
      {"measurement": "Behavioral score", "setting": "Rattus norvegicus [30]", "result": 13.4},
      {"measurement": "Behavioral score", "setting": "Rattus norvegicus [31]", "result": 3.7},
      {"measurement": "LLR score", "setting": "Rattus norvegicus [32]", "result": 2.3},
      {"measurement": "LLR score", "setting": "Rattus norvegicus [33]", "result": 0.6},
      {"measurement": "LLR score", "setting": "Rattus norvegicus [34]", "result": 0.1},
      {"measurement": "LLR score", "setting": "Rattus norvegicus [35]", "result": 0.1},
      {"measurement": "Delta t", "setting": "Mus musculus [36]", "result": 0.3, "unit": "°C"},
      {"measurement": "Delta t", "setting": "Mus musculus [37]", "result": 0.2, "unit": "°C"},
      {"measurement": "Behavioral score", "setting": "Rattus norvegicus [38]", "result": 5.8}
    ]}
  ]
}
